# From patent US4868195A, “Novel enolamides, pharmaceutical compositions and methods of use thereof for activity as modulators of the arachidonic acid cascade” (Warner-Lambert Company, priority 1988, dated 1989)
# Tested on: Human Leukocyte Lipoxygenase
# Assay: Human Leukocyte Lipoxygenase Assay (LDA-H)
# Assay type: biochemical
# Conditions: Concentration 2.50 E -5 M
# Method in brief: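 Enzyme from acetone-pentane powder of human buffy-coat leukocytes, extracted in 0.1M Tris pH 7.4. Compound preincubated 5 min with enzyme, then reaction started with arachidonic or linoleic acid (100 μM or 1.0 μM) and followed at 234 nm (conjugated diene) at 24° C. IC50 is molar concentration halving control rate.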
row,% Inhibition (LDAH),Structure (SMILES)
1,0.0%,CCCCOc1ccc(CCc2ccc(NC(=O)C3CS(=O)(=O)c4ccccc4C3=O)cc2)cc1 (centres unmarked) [Example 48]
2,0.0%,"O=C(Nc1ccc(CCc2ccc3ccccc3c2)cc1)C1=C(O)c2ccccc2S(=O)(=O)C1 [Example 51, 4-Hydroxy-N-[4-[2-(2-naphthalenyl)ethyl]phenyl]-2H-1-benzothiopyran-3-carboxamide, 1,1-dioxide]"

# Same assay, conditions: acetone-pentane powder enzyme, 234 nm, 24° C., 5 min preincubation; read-out: Concentration (M) for 50.0 % Inhibition, IC (LDAH)
row,IC50,Structure (SMILES)
1,4.5e-05 M,COc1ccc(CCc2ccc(NC(=O)C3CS(=O)(=O)c4ccccc4C3=O)cc2)cc1 (centres unmarked) [Example 41]
2,3.5e-06 M,"O=C(Nc1ccc(CCc2ccc(Cl)cc2)cc1)C1CS(=O)(=O)c2ccccc2C1=O (centres unmarked) [Example 54, N-[4-[2-(4-Chlorophenyl)ethyl]phenyl]-3,4-dihydro-4-oxo-2H-1-benzothiopyran-3-carboxamide, 1,1-dioxide]"

# Second part, the compound before the results:
row,Structure (SMILES),IC50
1,"O=C(Nc1ccc(CCc2ccccc2)cc1)C1CS(=O)(=O)c2ccccc2C1=O (centres unmarked) [Example 16, 3,4-Dihydro-4-oxo-N-[(4-(2-phenyl)ethyl]-phenyl]-2H-1-benzothiopyran-3-carboxamide, 1,1-dioxide]",5.1e-05 M
2,"O=C(Nc1ccc(CCc2ccc(-c3ccccc3)cc2)cc1)C1CS(=O)(=O)c2ccccc2C1=O (centres unmarked) [Example 46, N-[4-[2-([1,1'-biphenyl]-4-yl)ethyl]phenyl]-3,4-dihydro-4-oxo-2H-1-benzothiopyran-3-carboxamide, 1,1-dioxide]",1.1e-05 M
3,"CCCCCCCCCCc1ccc(NC(=O)C2CS(=O)(=O)c3ccccc3C2=O)cc1 (centres unmarked) [Example 60, N-(4-Decylphenyl)-3,4-dihydro-4-oxo-2H-1-benzoothiopyran-3-carboxamide, 1,1-dioxide]",2.5e-05 M
4,"COc1ccc(CCc2ccc(NC(=O)c3sc4ccccc4c3O)cc2)cc1OC [Example 143, Benzo[b]thiophene-2-carboxamide, N-[4-[2-(3,4-dimethoxphenyl)ethyl]phenyl]-3-hydroxy]",4.4e-06 M
